Experimental data taken from PMC9516332 (Frontiers in Oncology, 2022).
Where two headings read alike, the source gives them in different places.

Experiments:
Test in all cases: Kinase panel profiling at 1 µmol/L (MSA or IMAP), percentage inhibition
Type in all cases: biochemical
[1] = molecular target: panel of 255 wild-type kinases (Homo sapiens, UniProt P05129); conditions: read-out: %-inhibition at 1 µmol/L, PKCγ
[2] = molecular target: T1, panel of 255 wild-type kinases (Homo sapiens, UniProt P29323); conditions: read-out: %-inhibition at 1 µmol/L, EPHB2
T1 sequence (P29323 19-1055): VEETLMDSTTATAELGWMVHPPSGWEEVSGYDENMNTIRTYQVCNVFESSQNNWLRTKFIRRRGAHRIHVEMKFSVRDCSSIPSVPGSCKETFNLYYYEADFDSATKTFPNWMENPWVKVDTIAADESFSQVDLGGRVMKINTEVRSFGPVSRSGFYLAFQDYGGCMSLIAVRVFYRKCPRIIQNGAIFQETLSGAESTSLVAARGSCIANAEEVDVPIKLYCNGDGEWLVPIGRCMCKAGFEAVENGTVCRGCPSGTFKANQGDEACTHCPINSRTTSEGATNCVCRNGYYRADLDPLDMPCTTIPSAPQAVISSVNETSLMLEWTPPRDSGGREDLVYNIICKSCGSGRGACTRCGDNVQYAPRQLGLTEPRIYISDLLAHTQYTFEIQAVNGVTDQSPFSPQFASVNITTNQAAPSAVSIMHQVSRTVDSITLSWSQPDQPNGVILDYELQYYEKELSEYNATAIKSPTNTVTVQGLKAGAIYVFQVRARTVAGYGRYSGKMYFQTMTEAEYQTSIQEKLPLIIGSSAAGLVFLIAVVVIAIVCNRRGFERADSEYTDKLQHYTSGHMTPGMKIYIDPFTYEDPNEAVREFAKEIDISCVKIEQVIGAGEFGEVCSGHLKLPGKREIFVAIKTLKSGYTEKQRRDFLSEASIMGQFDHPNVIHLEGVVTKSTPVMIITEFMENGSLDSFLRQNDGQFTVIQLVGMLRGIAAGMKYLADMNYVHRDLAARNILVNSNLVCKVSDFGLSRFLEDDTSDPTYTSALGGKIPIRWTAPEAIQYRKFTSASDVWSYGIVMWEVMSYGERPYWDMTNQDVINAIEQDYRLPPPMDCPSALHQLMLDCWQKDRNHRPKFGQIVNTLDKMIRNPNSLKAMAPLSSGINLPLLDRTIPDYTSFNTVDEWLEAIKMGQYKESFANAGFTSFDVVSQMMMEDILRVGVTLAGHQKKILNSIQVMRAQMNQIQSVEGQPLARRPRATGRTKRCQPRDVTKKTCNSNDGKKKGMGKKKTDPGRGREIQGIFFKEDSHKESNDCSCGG

[3] = molecular target: panel of 255 wild-type kinases (Homo sapiens, UniProt P49840); conditions: read-out: %-inhibition at 1 µmol/L, GSK3α
[4] = molecular target: T2, panel of 255 wild-type kinases (Homo sapiens, UniProt Q12866); conditions: read-out: %-inhibition, MER
T2 sequence (Q12866 21-999): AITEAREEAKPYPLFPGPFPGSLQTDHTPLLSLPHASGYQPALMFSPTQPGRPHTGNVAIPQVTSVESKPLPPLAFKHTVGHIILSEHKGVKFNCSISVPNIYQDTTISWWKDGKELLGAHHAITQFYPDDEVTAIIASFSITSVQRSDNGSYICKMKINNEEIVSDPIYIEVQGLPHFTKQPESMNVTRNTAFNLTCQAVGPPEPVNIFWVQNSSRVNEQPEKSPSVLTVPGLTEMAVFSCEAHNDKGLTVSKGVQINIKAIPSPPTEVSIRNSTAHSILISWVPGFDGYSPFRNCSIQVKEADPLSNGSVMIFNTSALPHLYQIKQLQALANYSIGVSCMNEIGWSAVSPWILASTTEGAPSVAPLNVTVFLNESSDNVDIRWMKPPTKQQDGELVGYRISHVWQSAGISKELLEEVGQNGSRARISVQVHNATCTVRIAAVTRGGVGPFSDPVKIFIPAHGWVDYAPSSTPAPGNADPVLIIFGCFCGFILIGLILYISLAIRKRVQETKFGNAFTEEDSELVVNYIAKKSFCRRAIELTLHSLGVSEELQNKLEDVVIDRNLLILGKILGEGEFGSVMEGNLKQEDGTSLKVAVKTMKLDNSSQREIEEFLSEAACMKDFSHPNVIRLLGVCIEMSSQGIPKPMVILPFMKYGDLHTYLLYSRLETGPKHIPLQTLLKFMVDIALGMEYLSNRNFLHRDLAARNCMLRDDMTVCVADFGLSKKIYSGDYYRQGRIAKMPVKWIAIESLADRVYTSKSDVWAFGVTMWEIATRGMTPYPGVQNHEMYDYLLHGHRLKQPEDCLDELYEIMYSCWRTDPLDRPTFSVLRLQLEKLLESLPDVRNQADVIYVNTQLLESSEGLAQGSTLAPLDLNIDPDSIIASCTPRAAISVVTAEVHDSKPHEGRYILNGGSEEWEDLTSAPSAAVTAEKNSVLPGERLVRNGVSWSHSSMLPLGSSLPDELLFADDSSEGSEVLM

[5] = molecular target: panel of 255 wild-type kinases (Homo sapiens, UniProt Q15418); conditions: read-out: %-inhibition at 1 µmol/L, RSK1
[6] = molecular target: T3, panel of 255 wild-type kinases (Homo sapiens, UniProt Q96PN8); conditions: read-out: %-inhibition at 1 µmol/L, TSSK3
T3 sequence (Q96PN8 1-268): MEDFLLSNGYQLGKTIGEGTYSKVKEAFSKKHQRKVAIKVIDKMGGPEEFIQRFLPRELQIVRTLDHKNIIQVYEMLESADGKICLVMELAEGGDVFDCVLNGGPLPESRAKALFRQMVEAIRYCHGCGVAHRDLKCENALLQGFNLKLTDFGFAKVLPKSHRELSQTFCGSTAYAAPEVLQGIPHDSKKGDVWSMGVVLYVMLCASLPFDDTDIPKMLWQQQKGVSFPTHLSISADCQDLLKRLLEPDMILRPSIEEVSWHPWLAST

[7] = molecular target: panel of 255 wild-type kinases (Homo sapiens, UniProt Q9UQM7); conditions: read-out: %-inhibition CaMK2α
[8] = kinase PKCγ, 1 µmol/L single concentration
[9] = kinase EPHB2, 1 µmol/L single concentration
[10] = kinase GSK3α, 1 µmol/L single concentration
[11] = MER, 1 µmol/L single concentration
[12] = kinase RSK1, 1 µmol/L single concentration
[13] = kinase TSSK3, 1 µmol/L single concentration
[14] = CaMK2α kinase assay, 1 µmol/L single concentration

## Cn1cc(-c2cc3c(N4CCN(c5ncc([C@@](C)(N)c6ccc(F)cc6)cn5)CC4)ncnn3c2)cn1 [avapritinib]
[1]; [8]
  inhibition at 1 µM: -2.11%
[2]; [9]
  inhibition at 1 µM: 31%
[3]; [10]
  inhibition at 1 µM: 3%
[4]; [11]
  inhibition at 1 µM: 17%
[5]; [12]
  inhibition at 1 µM: -7%
[6]; [13]
  inhibition at 1 µM: -4%
[7]; [14]
  inhibition at 1 µM: -2.45%

## CNC(=O)c1ccc(-c2cnc3ncc(Cc4ccc5ncccc5c4)n3n2)cc1F [capmatinib]
[1]
  inhibition at 1 µM: 0.161%
[2]
  inhibition at 1 µM: -5%
[3]
  inhibition at 1 µM: -0.492%
[4]
  inhibition at 1 µM: 13%
[5]
  inhibition at 1 µM: 1.52%
[6]
  inhibition at 1 µM: -7%
[7]
  inhibition at 1 µM: -0.603%

## C[C@H](Nc1ncnc2nc[nH]c12)c1cc2cccc(Cl)c2c(=O)n1-c1ccccc1 [duvelisib]
[1]; [8]
  inhibition at 1 µM: -4.38%
[2]; [9]
  inhibition at 1 µM: 2%
[3]; [10]
  inhibition at 1 µM: -1.9%
[4]; [11]
  inhibition at 1 µM: -1%
[5]; [12]
  inhibition at 1 µM: -0.755%
[6]; [13]
  inhibition at 1 µM: 3%
[7]; [14]
  inhibition at 1 µM: 0.0129%
